# Results from US6369088B2, “Substituted 3-phenyl-5-alkoxy-1,3,4-oxadiazol-2-ones, their preparation and their use as pharmaceuticals” (Aventis Pharma Deutschland GmbH, priority 2000, dated 2002).
row,SMILES,melting point [°C]
1,COc1nn(-c2ccc([N+](=O)[O-])c(F)c2)c(=O)o1,127
2,COc1nn(-c2ccc(NC(=O)Oc3ccccc3)c(C)c2)c(=O)o1,145
3,"COc1nn(-c2ccc([N+](=O)[O-])c(C)c2)c(=O)o1 [Example 20, 5-Methoxy-3-(3-methyl-4-nitrophenyl)-3H-(1,3,4)oxadiazol-2-one]",112
4,"COc1nn(-c2ccc([N+](=O)[O-])cc2C)c(=O)o1 [Example 23, 5-Methoxy-3-(2-methyl-4-nitrophenyl)-3H-(1,3,4)oxadiazol-2-one]",111
5,"COc1nn(-c2ccc([N+](=O)[O-])c(OCc3ccc(F)cc3)c2)c(=O)o1 [Example 24, 5-Methoxy-3-(3-(4-fluorobenzyloxy)-4-nitrophenyl)-3H-(1,3,4)oxadiazol-2-one]",137
6,"COc1nn(-c2ccc(Oc3ccc(Cl)cc3)c(N)c2)c(=O)o1 [Example 27, 5-Methoxy-3-(3-amino-4-(4-chlorophenoxy)phenyl)-3H-(1,3,4)oxadiazol-2-one]",133
7,"COc1nn(-c2ccc(N)c(OCc3ccc(F)cc3)c2)c(=O)o1 [Example 29, 5-Methoxy-3-(4-amino-3-(4-fluorobenzyloxy)phenyl)-3H-(1,3,4)oxadiazol-2-one]",195
8,"COc1nn(-c2ccc(NC(=O)Cc3ccc(Cl)cc3)c(C)c2)c(=O)o1 [Example 31, 5-Methoxy-3-(4-(4-chlorophenylacetylamino)-3-methylphenyl)-3H-(1,3,4)oxadiazol-2-one]",190
9,"COc1nn(-c2ccc(NC(=O)CCCCl)c(C)c2)c(=O)o1 [Example 35, 5-Methoxy-3-(4-(4-chlorobutanoylamino)-3-methylphenyl)-3H-(1,3,4)oxadiazol-2-one]",137
10,"COc1nn(-c2ccc(NC(=O)C(C)(C)C)c(C)c2)c(=O)o1 [Example 36, 5-Methoxy-3-(4-pivaloylamino-3-methylphenyl)-3H-(1,3,4)oxadiazol-2-one]",157
11,"COc1nn(-c2ccc(NS(=O)(=O)CC(F)(F)F)c(C)c2)c(=O)o1 [Example 40, 5-Methoxy-3-(4-(2,2,2-trifluoroethylsulfonylamino)-3-methylphenyl)-3H-(1,3,4)oxadiazol-2-one]",151
12,"COc1nn(-c2ccc(NS(=O)(=O)c3ccc(Cl)cc3)cc2)c(=O)o1 [Example 43, 5-Methoxy-3-(4-(4-chlorophenylsulfonylamino)phenyl)-3H-(1,3,4)oxadiazol-2-one]",169
13,"COc1nn(-c2ccc(NS(=O)(=O)c3ccccc3Cl)cc2)c(=O)o1 [Example 44, 5-Methoxy-3-(4-(2-chlorophenylsulfonylamino)phenyl)-3H-(1,3,4)oxadiazol-2-one]",171
14,"COc1nn(-c2ccc(NS(=O)(=O)c3cccc(Cl)c3)cc2)c(=O)o1 [Example 45, 5-Methoxy-3-(4-(3-chlorophenylsulfonylamino)phenyl)-3H-(1,3,4)oxadiazol-2-one]",141
15,"COc1nn(-c2ccc(NC(=O)Cc3ccc(Cl)cc3)c(OCc3ccc(F)cc3)c2)c(=O)o1 [Example 46, 5-Methoxy-3-(4-(4-chlorophenylacetylamino)-3-(4-fluorobenzyloxy)phenyl)-3H-(1,3,4)oxadiazol-2-one]",167
16,"COc1nn(-c2ccc(NS(=O)(=O)Cc3ccccc3)cc2)c(=O)o1 [Example 47, 5-Methoxy-3-(4-benzylsulfonylaminophenyl)-3H-(1,3,4)oxadiazol-2-one]",153
17,"COc1nn(-c2ccc(NS(=O)(=O)C(C)C)cc2)c(=O)o1 [Example 49, 5-Methoxy-3-(4-isopropylsulfonylaminophenyl)-3H-(1,3,4)oxadiazol-2-one]",190
18,"COc1nn(-c2ccc(N(C)C)c(C)c2)c(=O)o1 [Example 50, 5-Methoxy-3-(4-dimethylamino-3-methylphenyl)-3H-(1,3,4)oxad iazol-2-one]",71
19,"CNc1ccc(-n2nc(OC)oc2=O)cc1OCc1ccc(F)cc1 [Example 55, 5-Methoxy-3-(3-(4-fluorobenzyloxy)-4-methylaminophenyl)-3H-(1,3,4)oxadiazol-2-one]",98
20,"COc1nn(-c2cccc(N)c2)c(=O)o1 [Example 56, 5-Methoxy-3-(3-aminophenyl)-3H-(1,3,4)oxadiazol-2-one]",95
21,"COc1nn(-c2cccc(N(Cc3ccccc3)Cc3ccccc3)c2)c(=O)o1 [Example 57, 5-Methoxy-3-(3-dibenzylaminophenyl)-3H-(1,3,4)oxadiazol-2-one]",71

row,SMILES,melting point [°C]
1,"COc1nn(-c2ccc(NC(=O)Nc3ccccn3)cc2)c(=O)o1 [Example 59, 5-Methoxy-3-(4-(pyrid-2-yl)aminocarbonylaminophenyl)-3H-(1,3,4)oxadiazol-2-one]",81
2,"COc1nn(-c2ccc(N)cc2Cl)c(=O)o1 [Example 63, 5-Methoxy-3-(4-amino-2-chlorophenyl)-3H-(1,3,4)oxadiazol-2-one]",126
3,"COc1nn(-c2ccc([N+](=O)[O-])cc2Cl)c(=O)o1 [Example 64, 5-Methoxy-3-(2-chloro-4-nitrophenyl)-3H-(1,3,4)oxadiazol-2-one]",92
4,"COc1nn(-c2ccc(NC(=O)c3ccc(OC(F)(F)F)cc3)cc2C)c(=O)o1 [Example 66, 5-Methoxy-3-(2-methyl-4-(4-trifluoromethoxybenzoylamino)phenyl)-3H-(1,3,4)oxadiazol-2-one]",150
5,"COc1nn(-c2ccc(NC(=O)OCc3ccccc3)cc2Cl)c(=O)o1 [Example 67, 5-Methoxy-3-(2-chloro-4-benzyloxycarbonylaminophenyl)-3H-(1,3,4)oxadiazol-2-one]",150
6,"COc1nn(-c2ccc(NC(=O)OCc3ccc(Cl)cc3)cc2)c(=O)o1 [Example 70, 5-Methoxy-3-(4-(4-chlorobenzyloxycarbonylamino)phenyl)-3H-(1,3,4)oxadiazol-2-one]",177
7,"COc1nn(-c2ccc(NC(=O)c3ccc(Cl)c(Cl)c3)cc2)c(=O)o1 [Example 72, 5-Methoxy-3-(4-(3,4-dichlorobenzoylamino)phenyl)-3H-(1,3,4)oxadiazol-2-one]",200
8,"COc1nn(-c2ccc(NC(=O)C(C)(C)Oc3ccc(Cl)cc3)cc2)c(=O)o1 [Example 73, 5-Methoxy-3-(4-(2-(4-chlorophenoxy)-2-methylpropionylamino)phenyl)-3H-(1,3,4)oxadiazol-2-one]",153
9,"Cc1cc(-n2nc(OC(C)C)oc2=O)ccc1NC(=O)OCc1ccccc1 [Example 75, 5-isopropoxy-3-(3-methyl-4-benzyloxycarbonylaminophenyl)-3H-(1,3,4)oxadiazol-2-one]",119
10,"CCCCOC(=O)Nc1ccc(-n2nc(OC(C)C)oc2=O)cc1C [Example 76, 5-isopropoxy-3-(3-methyl-4-butyloxycarbonylaminophenyl)-3H-(1,3,4)oxadiazol-2-one]",114
11,"Cc1cc(-n2nc(OC(C)C)oc2=O)ccc1NC(=O)Nc1cccc(Cl)c1 [Example 77, 5-isopropoxy-3-(3-methyl-4-(3-chlorophenylaminocarbonylamino)phenyl)-3H-(1,3,4)oxadiazol-2-one]",201
12,"Cc1cc(-n2nc(OC(C)(C)C)oc2=O)ccc1NC(=O)OCc1ccccc1 [Example 78, 5-tert-Butoxy-3-(3-methyl-4-benzyloxycarbonylaminophenyl)-3H-(1,3,4)oxadiazol-2-one]",113
13,"COc1nn(-c2ccc(NC(=O)NC3Cc4ccccc4C3)c(C)c2)c(=O)o1 [Example 81, 5-Methoxy-3-(3-methyl-4-(indan-2-ylaminocarbonylamino)phenyl)-3H-(1,3,4)oxadiazol-2-one]",206
14,"COc1nn(-c2ccc(NC(=O)NCc3cccnc3)c(C)c2)c(=O)o1 [Example 82, 5-Methoxy-3-(3-methyl-4-(pyrid-3-ylmethylaminocarbonylamino)phenyl)-3H-(1,3, 4)oxadiazol-2-one]",229
15,"COc1nn(-c2ccc(NC(=O)OCc3cccnc3)c(C)c2)c(=O)o1 [Example 83, 5-Methoxy-3-(3-methyl-4-(pyrid-3-ylmethoxycarbonylamino)phenyl)-3H-(1,3,4)oxadiazol-2-one]",232
16,"COc1nn(-c2ccc(NC(=O)c3ccc(C(F)(F)F)cc3)c(OCc3ccccc3)c2)c(=O)o1 [Example 86, 5-Methoxy-3-(3-benzyloxy-4-(4-trifluoromethylbenzoylamino)phenyl)-3H-(1,3,4)oxadiazol-2-one]",159
17,"COc1nn(-c2ccc(NC(=O)c3ccc(C(C)(C)C)cc3)c(F)c2)c(=O)o1 [Example 87, 5-Methoxy-3-(3-fluoro-4-(4-tert-butylbenzoylamino)phenyl)-3H-(1,3,4)oxadiazol-2-one]",144
18,"COc1nn(-c2ccc(NC(=O)OCC(F)(F)F)c(C)c2)c(=O)o1 [Example 88, 5-Methoxy-3-(3-methyl-4-(2,2,2-trifluoroethoxycarbonylamino)phenyl)-3H-(1,3, 4)oxadiazol-2-one]",141
19,"COc1nn(-c2ccc(NC(=O)N3CCCCC3)c(C)c2)c(=O)o1 [Example 89, 5-Methoxy-3-(3-methyl-4-piperidinocarbonylaminophenyl)-3H-(1,3,4)oxadiazol-2-one]",154
20,"COc1ccc2cc(C(=O)Nc3ccc(-n4nc(OC)oc4=O)cc3)oc2c1 [Example 90, 5-Methoxy-3-(4-(6-methoxybenzofuran-2-yl-carbonylamino)phenyl)-3H-(1,3,4)oxadiazol-2-one]",191
